These results are taken from patent publication US9995732B2, “Evaporative edge lithography of a liposomal drug microarray for cell migration assays” (FLORIDA STATE UNIVERSITY RESEARCH FOUNDATION, priority 2012, dated 2018).

The test system of data set [1] is HeLa cells. Kind of data set: Cell adhesion experiments on lipid films of different multilayer thickness. In kind it is cell-based. As for the experimental part:
Lipids were dissolved in ethanol and added to each channel in increasing amounts from 0.2 ng to 20 μg. Tests for cell attachment were performed by seeding HeLa cells into assay channel with varying amounts of lipid films. Cells were allowed to attach for two hours before washing the channels repeatedly 5 times. Prior to counting, cells were incubated with live-cell fluorescent dye (SYTO9, Invitrogen). The number of cells per square micron area (μm^2) that remained attached was counted manually. Experiments for cell adhesion where performed in three replicates. Values for cell density of each treatment were determined by averaging the number of cells in 5 random 100 μm^2 areas in a single image captured at a 4× magnification.
(§1) A student t-test was performed to determine statistical significance between means of each sample (p-value <0.05). Error bars in figures are standard error of the mean for n samples. Characterizing the edge lipid films produced a total of n=20 samples and middle lipid film measurements produced n=10 samples. Cell density experiments were performed in triplicates (n=3). All samples for cell migration were taken in triplicate and replicated three times (n=9).

Data set [2] concerns HeLa cells. Kind of data set: Cell migration assay of HeLa cells on lipid multilayer films made by evaporative edge lithography. The settings on record: for migration rate of HeLa cells versus lipid thickness: lipid only; for migration rate of HeLa cells versus lipid thickness / collective cell migration compared to control group: 24 hours; for HeLa cell migration (qualitative effect): drug delivered from encapsulated lipid films; for collective cell migration compared to control group: lipid encapsulated film. In kind it is cell-based. As for the experimental part:
Polydimethylsiloxane (PDMS) was cured from the SYLGARD® 184 silicone elastorner kit in a 60° C. oven overnight. PDMS strips of 15 mm long by 1 mm wide were placed between 500-800 μm apart on prepared glass coverslips before addition of lipid mixtures. 1,2-dioleoyl-3-trimethylammonium-propane (chloride salt) (DOTAP) and 1,2-dioleoyl-sn-glycerol-3-phosphoethanolamine-N-(lissamine rhodamine b sulfonyl) (ammonium salt) (DOPE-rhodamine) were purchased from Avanti Polar Lipids. To create lipid only solutions, DOTAP was mixed with 1 molar percent (mol %) DOPE-rhodamine in chloroform and dried overnight in a vacuum pump desiccators at 16 LM 15 Torr 7.4 PSIG to remove solvent. Ethanol (100%) was added to suspend dried lipid powder and 1 μl was deposited in each PDMS channel and the array was dried overnight in a vacuum to remove residual ethanol. A similar procedure was used for docetaxel encapsulated lipid solutions and the drug was dissolved in ethanol prior to adding to the dried lipid powder.
The prepared assays on glass coverslips were placed individually wells of a 6-well plate for cell culture. For experiments, cells were seeded onto the prepared patterned glass coverslips by gently pipetting the cell suspension (2.5×10^5 cells/ml, 1 ml per coverslip) directly over each PDMS channel to allow cells to settle in them. The same method was used to seed other parts of the slide for use as control areas. Cells were allowed to settle for 1-2 hours before the PDMS barriers were removed to promote cell migration. After barrier removal, the coverslips were washed once with HBSS and replaced with fresh growth media. The cells were incubated over the patterned areas for up to 24 hours. Width of each cell strip was measure by hand with Nikon Elements 4.0 analysis software and the average migration rate for each strip was determined with the following equation: Migration Rate (μm/hr)=(WidthT=24 hrs−WidthT=0 hrs/24hrs.
Width is the average width in micrometers (μm) of the cell monolayer measured either at the beginning of the experiment (T=0 hrs) or at the end (T=24 hours).
The images for cell migration were captured on a Nikon Ti Eclipse inverted microscope with 4× or 10× objectives. Images for cell migration were taken after barrier removal and once again 24 hours after incubation period in phase contrast. Fluorescent filters used were B-2E/C and G-2E/C for red and green emitting dyes.
as §1

For data set [3] the following is noted: cited from earlier work.
For data set [4] the following is noted: cited from earlier work. The source holds these as a separate data set.

“Also recorded” adds a separate entry of the source.

Consider `CCCCCCCC/C=C\CCCCCCCC(=O)OCC(C[N+](C)(C)C)OC(=O)CCCCCCC/C=C\CCCCCCCC.[Cl-]` (stereo not shown) [DOTAP, 1,2-dioleoyl-3-trimethylammonium-propane (chloride salt)], for which the “HeLa cell adhesion to lipid films compared to untreated glass” value in data set [1] (concentrations higher than 20 μg/ml, 2 hours of incubation) is given as “adhere significantly less (p<0.05)”. Moreover, the “HeLa cell adhesion to lipid films” value in data set [1] (films created from 20 ng (initial solution 20 μg/ml) or lower, 2 hours of incubation) was “adherent”. The “HeLa cell morphology and viability on lipid multilayers” value in data set [1] (lipid multilayers created from 200 ng of lipids or more, compared to thinner multilayers) is “exhibited abnormal morphology and appeared dead”. The entries for the “migration rate of HeLa cells versus lipid thickness” value in data set [2] (channels from lipid solutions of 20 μg/ml or lower) and in data set [2] (lipid solutions above 20 μg/ml) were “not significantly (p<0.05) affected” and “significantly hindered”, respectively.
What is called log P is a log measure of how a compound divides between an organic and an aqueous phase. For the compound `C[C@H]1CCC/C=C/[C@@H]2C[C@H](O)C[C@H]2[C@H](O)/C=C/C(=O)O1` [brefeldin A], the “log P” value in data set [3] is 1.61. Besides, the “HeLa cell migration (qualitative effect)” value in data set [2] is given as “inhibited”.
In the case of `CC(=O)O[C@@]12CO[C@@H]1C[C@H](O)[C@@]1(C)C(=O)[C@H](O)C3=C(C)[C@@H](OC(=O)[C@H](O)[C@@H](NC(=O)OC(C)(C)C)c4ccccc4)C[C@@](O)([C@@H](OC(=O)c4ccccc4)[C@H]21)C3(C)C` [docetaxel], the solubility in water result in data set [4] is on record as “less than 0.025 mg/L”. In addition, the “migration rate of the cells, dose dependence” value in data set [2] (delivered by encapsulated lipid films, over 24 hours) was “reduced the migration rate of the cells dose-dependently”. For the same compound, the “collective cell migration compared to control group” value in data set [2] (docetaxel to lipid ratio (by mass) 1:2), in data set [2] (docetaxel to lipid ratio (by mass) 1:4) and in data set [2] (docetaxel to lipid ratio (by mass) 1:10) was “significantly (p<0.05) reduce collective cell migration” throughout. Moreover, the “HeLa cell migration (qualitative effect)” value in data set [2] is listed as “significantly inhibit cellular migration; also recorded: inhibited”.
